Data from patent US20260297083A1, “SUBSTITUTED ACETYLENE COMPOUND DERIVATIVES AND THEIR PHARMACEUTICAL USE” (AVELOS THERAPEUTICS INC., priority 2023, published 2026).

Tested on: DLD-1 BRCA2(−/−) Cell
Experiment: Cell viability assay (Resazurin) in DLD1-BRCA2 cells
Format: cell-based
Details: Homo sapiens, DLD-1, 336 h, 14 days, 1,500 cells/well, final DMSO 1%
Method: DLD1-BRCA2 KG (Horizon Discovery, Cat #HD 105-007) cells and DLD1-parental cells were maintained in culture media (RPMI-1640 including 2 mM L-glutamin and 25 mM sodium bicarbonate, supplemented with 10% FBS), at 37° C. in a humidified atmosphere with 5% CO2. Cells were seeded at the final concentration of 1,500 cells/well (DLD1-BRCA2 KG) and 600 cells/well (DLD1-parental) in a 96-well plate. Four hours later, test compounds were added (the final concentration of DMSO was 1%) to the cells and media were replaced every 3-4 days for 14 days. To measure viability, cells were incubated in culture media supplemented with 0.1 mg/ml of Resazurin (Merck, Cat #R7017) for 4 hours. The fluorescence was measured at Ex/Em=560 nm/590 nm using EnSight multimode plate reader (Perkin Elmer). Data analysis and IC50 calculation was done using GraphPad Prism (Version 10.0.2).

Going from `Cc1ccc(F)c(N(CC#Cc2cnc(N3CCOCC3)cn2)C(=O)[C@H]2CCS(=O)(=O)N2c2cc(C(F)(F)F)cc(C)n2)c1` [Example 41, (R)-N-(2-fluoro-5-methylphenyl)-2-(6-methyl-4-(trifluoromethyl)pyridin-2-yl)-N-(3-(5-morpholinopyrazin-2-yl)prop-2-yn-1-yl) isothiazolidine-3-carboxamide 1,1-dioxide] to `CCN1CCN(c2cnc(C#CCN(C(=O)[C@@H]3CCS(=O)(=O)N3c3cc(C(F)(F)F)cc(C)n3)c3cc(C)ccc3F)cn2)CC1` [Example 51, (S)-N-(3-(5-(4-ethylpiperazin-1-yl)pyrazin-2-yl)prop-2-yn-1-yl)-N-(2-fluoro-5-methylphenyl)-2-(6-methyl-4-(trifluoromethyl)pyridin-2-yl)isothiazolidine-3-carboxamide 1,1-dioxide], the IC50 falls from > 5100 nM to < 1000 nM. The second is the more potent here.

First: Cc1cc(C(F)(F)F)cc(N2[C@H](C(=O)N(CC#Cc3cncc(N4CCOCC4)n3)c3ccc(F)c(C)c3)CCS2(=O)=O)n1 [Example 42, (S)-N-(4-fluoro-3-methylphenyl)-2-(6-methyl-4-(trifluoromethyl)pyridin-2-yl)-N-(3-(6-morpholinopyrazin-2-yl)prop-2-yn-1-yl)isothiazolidine-3-carboxamide 1,1-dioxide]
Second: Cc1cc(C(F)(F)F)cc(N2[C@H](C(=O)N(CC#Cc3ncc(N4CCOCC4)nc3N)c3ccc(F)c(C)c3)CCS2(=O)=O)n1 [Example 43]
The IC50 of the first is lower: < 1000 nM for the first, 1100 to 5000 nM for the second.

Compared with `Cc1cc(C(F)(F)F)cc(N2[C@H](C(=O)N(CC#Cc3cnc(N4CCOCC4)c(N)n3)c3ccc(F)c(C)c3)CCS2(=O)=O)n1` [Example 44, (S)-N-(3-(6-amino-5-morpholinopyrazin-2-yl)prop-2-yn-1-yl)-N-(4-fluoro-3-methylphenyl)-2-(6-methyl-4-(trifluoromethyl)pyridin-2-yl)isothiazolidine-3-carboxamide 1,1-dioxide], `Cc1cc(C(F)(F)F)cc(N2[C@H](C(=O)N(CC#Cc3cnc(N4CCOCC4)c(C)n3)c3ccc(F)c(C)c3)CCS2(=O)=O)n1` [Example 45, (S)-N-(4-fluoro-3-methylphenyl)-2-(6-methyl-4-(trifluoromethyl)pyridin-2-yl)-N-(3-(6-methyl-5-morpholinopyrazin-2-yl)prop-2-yn-1-yl)isothiazolidine-3-carboxamide 1,1-dioxide] is lower in IC50: 1100 to 5000 nM for the first, < 1000 nM for the second.

Compared with `Cc1cc(C(F)(F)F)cc(N2[C@H](C(=O)N(CC#Cc3cnc(N4CCOCC4)c(C(F)(F)F)n3)c3ccc(F)c(C)c3)CCS2(=O)=O)n1` [Example 46, (S)-N-(4-fluoro-3-methylphenyl)-2-(6-methyl-4-(trifluoromethyl)pyridin-2-yl)-N-(3-(5-morpholino-6-(trifluoromethyl)pyrazin-2-yl)prop-2-yn-1-yl)isothiazolidine-3-carboxamide 1,1-dioxide], `CCN1CCN(c2cnc(C#CCN(C(=O)[C@@H]3CCS(=O)(=O)N3c3cc(C(F)(F)F)cc(C)n3)c3ccc(F)c(C)c3)cn2)CC1` [Example 50, (S)-N-(3-(5-(4-ethylpiperazin-1-yl)pyrazin-2-yl)prop-2-yn-1-yl)-N-(4-fluoro-3-methylphenyl)-2-(6-methyl-4-(trifluoromethyl)pyridin-2-yl)isothiazolidine-3-carboxamide 1,1-dioxide] is lower in IC50: 1100 to 5000 nM for the first, < 1000 nM for the second. The second is the more potent here.

First: Cc1cc(C(F)(F)F)cc(N2[C@H](C(=O)N(CC#Cc3cnc(N4C[C@@H](C)O[C@@H](C)C4)cn3)c3ccc(F)c(C)c3)CCS2(=O)=O)n1 [Example 47, (S)-N-(3-(5-((2S,6R)-2,6-dimethylmorpholino)pyrazin-2-yl)prop-2-yn-1-yl)-N-(4-fluoro-3-methylphenyl)-2-(6-methyl-4-(trifluoromethyl)pyridin-2-yl)isothiazolidine-3-carboxamide 1,1-dioxide]
Second: Cc1cc(C(F)(F)F)cc(N2[C@H](C(=O)N(CC#Cc3cnc(N4C[C@H](C)N[C@@H](C)C4)cn3)c3ccc(F)c(C)c3)CCS2(=O)=O)n1 [Example 52, (S)-N-(3-(5-((3S,5S)-3,5-dimethylpiperazin-1-yl)pyrazin-2-yl)prop-2-yn-1-yl)-N-(4-fluoro-3-methylphenyl)-2-(6-methyl-4-(trifluoromethyl)pyridin-2-yl)isothiazolidine-3-carboxamide 1,1-dioxide]
The IC50 of the first is higher: 1100 to 5000 nM for the first, < 1000 nM for the second. The second is the more potent here.

`Cc1cc(C(F)(F)F)cc(N2[C@H](C(=O)N(CC#Cc3cnc(N4CC5CCC(C4)O5)cn3)c3ccc(F)c(C)c3)CCS2(=O)=O)n1` [Example 48, (3S)-N-(3-(5-(8-oxa-3-azabicyclo[3.2.1]octan-3-yl)pyrazin-2-yl)prop-2-yn-1-yl)-N-(4-fluoro-3-methylphenyl)-2-(6-methyl-4-(trifluoromethyl)pyridin-2-yl)isothiazolidine-3-carboxamide 1,1-dioxide] and `Cc1cc(C(F)(F)F)cc(N2[C@H](C(=O)N(CC#Cc3cnc(N4C5CCC4COC5)cn3)c3ccc(F)c(C)c3)CCS2(=O)=O)n1` [Example 49, (3S)-N-(3-(5-(3-oxa-8-azabicyclo[3.2.1]octan-8-yl)pyrazin-2-yl)prop-2-yn-1-yl)-N-(4-fluoro-3-methylphenyl)-2-(6-methyl-4-(trifluoromethyl)pyridin-2-yl)isothiazolidine-3-carboxamide 1,1-dioxide] cannot be ordered by IC50: < 1000 nM for the first, < 1000 nM for the second.

First: Cc1cc(C(F)(F)F)cc(N2[C@H](C(=O)N(CC#Cc3cnc(N4C[C@H](C)N(C(C)C)[C@@H](C)C4)cn3)c3ccc(F)c(C)c3)CCS2(=O)=O)n1 [Example 53, (S)-N-(4-fluoro-3-methylphenyl)-N-(3-(5-((3S,5S)-4-isopropyl-3,5-dimethylpiperazin-1-yl)pyrazin-2-yl)prop-2-yn-1-yl)-2-(6-methyl-4-(trifluoromethyl)pyridin-2-yl)isothiazolidine-3-carboxamide 1,1-dioxide]
Second: Cc1cc(C(F)(F)F)cc(N2[C@@H](C(=O)N(CC#Cc3cnc(N4C[C@H](C)N(C(C)C)[C@@H](C)C4)cn3)c3ccc(F)c(C)c3)CCS2(=O)=O)n1 [Example 54, (R)-N-(4-fluoro-3-methylphenyl)-N-(3-(5-((3S,5S)-4-isopropyl-3,5-dimethylpiperazin-1-yl)pyrazin-2-yl)prop-2-yn-1-yl)-2-(6-methyl-4-(trifluoromethyl)pyridin-2-yl)isothiazolidine-3-carboxamide 1,1-dioxide]
The IC50 of the first is lower: < 1000 nM for the first, > 5100 nM for the second.

`Cc1cc(C(F)(F)F)cc(N2[C@H](C(=O)N(CC#Cc3cnc(N4[C@H](C)CN(C(C)C)C[C@H]4C)cn3)c3ccc(F)c(C)c3)CCS2(=O)=O)n1` [Example 55, (S)-N-(4-fluoro-3-methylphenyl)-N-(3-(5-((2R,6R)-4-isopropyl-2,6-dimethylpiperazin-1-yl)pyrazin-2-yl)prop-2-yn-1-yl)-2-(6-methyl-4-(trifluoromethyl)pyridin-2-yl)isothiazolidine-3-carboxamide 1,1-dioxide] and `Cc1cc(C(F)(F)F)cc(N2[C@H](C(=O)N(CC#Cc3cnc(-c4c[nH]nn4)cn3)c3ccc(F)c(C)c3)CCS2(=O)=O)n1` [Example 56, (S)-N-(3-(5-(1H-1,2,3-triazol-4-yl)pyrazin-2-yl)prop-2-yn-1-yl)-N-(4-fluoro-3-methylphenyl)-2-(6-methyl-4-(trifluoromethyl)pyridin-2-yl)isothiazolidine-3-carboxamide 1,1-dioxide] cannot be ordered by IC50: < 1000 nM for the first, < 1000 nM for the second.
